Experimental data reported in ChEMBL document CHEMBL2346553, “Synthesis and evaluation of non-dimeric HCV NS5A inhibitors” (Bioorg Med Chem Lett, 2013).

Key:
[1] = test system: Hepatitis C virus; assay: microbe, parasite or virus in culture; conditions: genotype 1b, Huh-7
[2] = test system: PBMC; conditions: human
[3] = test system: CCRF-CEM; conditions: human
[4] = test system: Vero; conditions: chlorocebus sabaeus
[5] = in vitro; conditions: human, HuH7 cells
[6] = molecular target: T1, CYP1A2 (Homo sapiens, UniProt P05177); assay: in vitro
T1 sequence (P05177 whole entry): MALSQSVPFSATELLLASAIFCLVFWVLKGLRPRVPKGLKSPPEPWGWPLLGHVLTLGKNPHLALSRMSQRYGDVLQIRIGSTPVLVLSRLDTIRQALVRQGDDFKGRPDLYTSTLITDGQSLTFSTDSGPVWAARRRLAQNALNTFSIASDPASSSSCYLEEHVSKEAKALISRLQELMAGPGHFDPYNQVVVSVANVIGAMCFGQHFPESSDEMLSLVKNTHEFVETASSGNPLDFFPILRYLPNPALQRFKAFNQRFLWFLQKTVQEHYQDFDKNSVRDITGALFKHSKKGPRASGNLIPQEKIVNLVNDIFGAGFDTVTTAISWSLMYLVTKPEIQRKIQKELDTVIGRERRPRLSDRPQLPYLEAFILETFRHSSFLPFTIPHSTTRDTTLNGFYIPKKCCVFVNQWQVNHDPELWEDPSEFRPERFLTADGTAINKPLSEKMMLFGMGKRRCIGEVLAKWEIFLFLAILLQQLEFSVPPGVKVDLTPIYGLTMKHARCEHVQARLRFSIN

[7] = molecular target: Cytochrome P450 2C9 (Homo sapiens, UniProt P11712)
[8] = molecular target: T2, Cytochrome P450 1A2 (Homo sapiens, UniProt P05177)
T2 sequence (P05177 whole entry): T1 sequence (P05177 whole entry)

[9] = molecular target: CYP2D6 (Homo sapiens, UniProt P10635); assay: in vitro
[10] = molecular target: CYP2C9 (Homo sapiens, UniProt P11712); assay: in vitro
[11] = molecular target: Cytochrome P450 2D6 (Homo sapiens, UniProt P10635)
[12] = molecular target: Cytochrome P450 3A4 (Homo sapiens, UniProt P08684)
[13] = molecular target: CYP3A4 (Homo sapiens, UniProt P08684); assay: in vitro
[14] = in vitro; conditions: human, CEM cells
[15] = in vitro; conditions: human, pbmc

Chain of Cytochrome P450 2D6 (P10635 whole entry): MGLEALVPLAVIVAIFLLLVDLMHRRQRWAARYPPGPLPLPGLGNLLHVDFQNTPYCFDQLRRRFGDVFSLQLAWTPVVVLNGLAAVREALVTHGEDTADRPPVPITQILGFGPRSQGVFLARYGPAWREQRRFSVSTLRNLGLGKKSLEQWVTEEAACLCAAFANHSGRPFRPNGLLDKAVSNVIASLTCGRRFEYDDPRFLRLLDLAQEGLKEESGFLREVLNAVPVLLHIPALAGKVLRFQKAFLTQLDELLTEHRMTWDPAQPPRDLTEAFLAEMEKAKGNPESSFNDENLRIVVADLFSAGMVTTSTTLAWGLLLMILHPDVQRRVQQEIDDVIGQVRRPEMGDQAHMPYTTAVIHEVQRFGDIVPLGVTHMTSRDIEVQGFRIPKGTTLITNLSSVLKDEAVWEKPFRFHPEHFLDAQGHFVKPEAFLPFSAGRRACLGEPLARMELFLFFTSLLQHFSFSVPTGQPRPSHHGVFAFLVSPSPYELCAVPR
Chain of CYP2D6 (P10635 whole entry): as above
Chain of CYP2C9 (P11712 whole entry): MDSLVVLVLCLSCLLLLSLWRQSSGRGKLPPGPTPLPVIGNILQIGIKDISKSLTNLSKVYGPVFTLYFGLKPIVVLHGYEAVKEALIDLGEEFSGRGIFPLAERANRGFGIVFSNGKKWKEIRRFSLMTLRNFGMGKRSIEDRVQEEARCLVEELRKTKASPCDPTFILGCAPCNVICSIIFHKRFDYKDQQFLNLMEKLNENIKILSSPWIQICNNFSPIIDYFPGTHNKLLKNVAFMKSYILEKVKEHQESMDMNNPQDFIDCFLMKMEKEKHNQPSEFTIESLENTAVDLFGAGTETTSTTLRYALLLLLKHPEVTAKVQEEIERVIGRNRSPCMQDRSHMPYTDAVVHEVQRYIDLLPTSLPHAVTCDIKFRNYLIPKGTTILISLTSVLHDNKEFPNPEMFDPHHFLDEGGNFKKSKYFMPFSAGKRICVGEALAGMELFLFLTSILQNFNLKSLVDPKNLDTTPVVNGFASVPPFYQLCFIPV
Chain of Cytochrome P450 2C9 (P11712 whole entry): as above
Chain of CYP3A4 (P08684 whole entry): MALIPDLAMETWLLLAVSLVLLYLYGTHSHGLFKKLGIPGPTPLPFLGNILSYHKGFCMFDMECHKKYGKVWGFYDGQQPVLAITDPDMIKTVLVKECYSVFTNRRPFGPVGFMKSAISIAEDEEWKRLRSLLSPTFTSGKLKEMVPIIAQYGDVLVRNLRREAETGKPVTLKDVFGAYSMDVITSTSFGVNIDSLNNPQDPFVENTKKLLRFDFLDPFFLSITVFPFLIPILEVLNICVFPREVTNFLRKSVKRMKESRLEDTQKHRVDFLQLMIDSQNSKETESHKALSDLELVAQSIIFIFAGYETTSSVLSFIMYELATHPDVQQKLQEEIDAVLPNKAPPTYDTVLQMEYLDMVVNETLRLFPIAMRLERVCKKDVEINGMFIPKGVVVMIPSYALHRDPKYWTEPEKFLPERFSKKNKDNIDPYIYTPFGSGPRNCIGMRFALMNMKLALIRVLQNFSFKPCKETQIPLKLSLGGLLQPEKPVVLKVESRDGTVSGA
Chain of Cytochrome P450 3A4 (P08684 whole entry): as above

Structure (SMILES)	EC50 [1] [nM]	EC90 [1] [nM]	CC50 [2] [µM]	CC50 [3] [µM]	CC50 [4] [µM]	CC50 [5] [nM]	IC90 [6] [µM]	IC50 [7] [µM]	IC50 [8] [µM]	IC90 [9] [µM]	IC90 [10] [µM]	IC50 [11] [µM]	IC50 [12] [µM]	IC90 [13] [µM]	CC50 [14] [µM]	CC50 [15] [µM]
COC(=O)N[C@H](C(=O)N1CCC[C@H]1c1ncc(-c2ccc(-c3ccc(-c4cnc([C@@H]5CCCN5C(=O)[C@@H](NC(=O)OC)C(C)C)[nH]4)cc3)cc2)[nH]1)C(C)C	0.01	0.03														
COC(=O)N[C@H](C(=O)N1CCC[C@H]1c1ncc(-c2ccccc2)[nH]1)C(C)C	> 1000		> 100	> 100	> 100	> 1000										
COC(=O)N[C@H](C(=O)N1CCC[C@H]1c1ncc(-c2ccc(Br)cc2)[nH]1)C(C)C	> 100		> 100	50	48	> 1000										
COC(=O)N[C@H](C(=O)N1CCC[C@H]1c1ncc(-c2ccc(N=[N+]=[N-])cc2)[nH]1)C(C)C	8	52	> 100	> 100	> 100	> 1000	> 100	> 100	> 100	> 100	> 100	> 100	5.1	96.1		
COC(=O)N[C@H](C(=O)N1CCC[C@H]1c1ncc(-c2ccc(C#N)cc2)[nH]1)C(C)C	> 100		> 100	98	33	> 1000										
COC(=O)N[C@H](C(=O)N1CCC[C@H]1c1ncc(-c2ccc([N+](=O)[O-])cc2)[nH]1)C(C)C	> 100		> 100	> 100	> 100	> 1000										
COC(=O)N[C@H](C(=O)N1CCC[C@H]1c1ncc(-c2ccc(OC(F)(F)F)cc2)[nH]1)C(C)C	> 100		49		30	> 1000									> 100	
COC(=O)N[C@H](C(=O)N1CCC[C@H]1c1ncc(-c2ccc(C(F)(F)F)cc2)[nH]1)C(C)C	> 100				26	> 1000									> 100	> 100
COC(=O)N[C@H](C(=O)N1CCC[C@H]1c1ncc(-c2ccc(OC)cc2)[nH]1)C(C)C	> 1000		> 100	> 100	> 100	> 1000										
COC(=O)N[C@H](C(=O)N1CCC[C@H]1c1ncc(-c2ccc(C)cc2)[nH]1)C(C)C	> 1000		> 100	> 100	> 100	> 1000										
COC(=O)N[C@H](C(=O)N1CCC[C@H]1c1ncc(-c2ccc(-c3ccccc3)cc2)[nH]1)C(C)C	300	900	14	70	18	> 1000										
COC(=O)N[C@@H](CC(C)C)C(=O)N1CCC[C@H]1c1ncc(-c2ccc(-c3ccccc3)cc2)[nH]1	> 100	> 1000	16	61	25	> 1000										
C[C@H](NC(=O)OC(C)(C)C)C(=O)N1CCC[C@H]1c1ncc(-c2ccc(-c3ccccc3)cc2)[nH]1	> 1000		16	11	13	> 1000										
C=CC[C@H](NC(C)=O)C(=O)N1CCC[C@H]1c1ncc(-c2ccc(-c3ccccc3)cc2)[nH]1	> 1000		100	73	21	> 1000										
COC(=O)N[C@H](C(=O)N1CCC[C@H]1c1ncc(-c2ccc(Cl)cc2Cl)[nH]1)C(C)C	1000		56		15	> 1000									> 100	
COC(=O)N[C@H](C(=O)N1CCC[C@H]1c1ncc(-c2ccc(S(=O)(=O)c3ccccc3)cc2)[nH]1)C(C)C	> 100		> 100	> 100	> 100	> 1000										
COC(=O)N[C@H](C(=O)N1CCC[C@H]1c1nc(Br)c(-c2ccc(N=[N+]=[N-])cc2)[nH]1)C(C)C	0.7	2.9	35	52	16	> 1000	> 100	50.5	80.9	> 100	> 100	50.5	1.5	46.1		

Structure (SMILES)	EC50 [1] [nM]	EC90 [1] [nM]	CC50 [2] [µM]	CC50 [3] [µM]	CC50 [4] [µM]	CC50 [5] [nM]	IC90 [6] [µM]	IC50 [7] [µM]	IC50 [8] [µM]	IC90 [9] [µM]	IC90 [10] [µM]	IC50 [11] [µM]	IC50 [12] [µM]	IC90 [13] [µM]	CC50 [14] [µM]	CC50 [15] [µM]
COC(=O)N[C@H](C(=O)N1CCC[C@H]1c1nc(Cl)c(-c2ccc(N=[N+]=[N-])cc2)[nH]1)C(C)C	4	14	94		12	> 1000									> 100	
COC(=O)N[C@H](C(=O)N1CCC[C@H]1c1nc(I)c(-c2ccc(N=[N+]=[N-])cc2)[nH]1)C(C)C	2	3	64.2		14.2	> 1000									> 100	
COC(=O)N[C@H](C(=O)N1CCC[C@H]1c1ncc(-c2ccc(-c3ccc(C#N)cc3)cc2)[nH]1)C(C)C	> 100		> 100	98	33	> 1000										
COC(=O)N[C@H](C(=O)N1CCC[C@H]1c1ncc(-c2ccc(-c3ccc(C)cc3)cc2)[nH]1)C(C)C	> 100		90	16	14	> 1000										
COC(=O)N[C@H](C(=O)N1CCC[C@H]1c1nc(-c2ccc(-c3ccc(C(F)(F)F)cc3)cc2)c[nH]1)C(C)C	4.6	9.6	> 100	12	14	> 1000	> 100	9.1	82.9	> 100	> 100	62.1	6.5	> 100		
COC(=O)N[C@H](C(=O)N1CCC[C@H]1c1ncc(-c2ccc(-c3cccc(O)c3)cc2)[nH]1)C(C)C	> 1000				50	> 1000									> 100	> 100
COC(=O)N[C@H](C(=O)N1CCC[C@H]1c1ncc(-c2ccc(-c3ccc(OC)cc3)cc2)[nH]1)C(C)C	> 100		85	30	13	> 1000										
COC(=O)N[C@H](C(=O)N1CCC[C@H]1c1ncc(-c2ccc(-c3ccc(C(N)=O)cc3)cc2)[nH]1)C(C)C	21	76	> 100	> 100	> 100	> 1000										
COC(=O)N[C@H](C(=O)N1CCC[C@H]1c1ncc(-c2ccc(-c3ccc(C(=O)OC)cc3)cc2)[nH]1)C(C)C	> 100		14	61	17	> 1000										
COC(=O)N[C@H](C(=O)N1CCC[C@H]1c1nc(-c2ccc(-c3ccc(CO)cc3)cc2)c[nH]1)C(C)C	2	9	> 100	67	59	> 1000	> 100	31.2	56.7	> 100	> 100	> 100	6.9	> 100		
COC(=O)N[C@H](C(=O)N1CCC[C@H]1c1ncc(-c2ccc(-c3ccc(S(C)(=O)=O)cc3)cc2)[nH]1)C(C)C	> 100		> 100	54	6	> 1000										
COC(=O)N[C@H](C(=O)N1CCC[C@H]1c1ncc(-c2ccc(-c3ccc(N=[N+]=[N-])cc3)cc2)[nH]1)C(C)C	> 100		37	11	11	> 1000										
COC(=O)N[C@H](C(=O)N1CCC[C@H]1c1nc(Cl)c(-c2ccc(-c3ccc(C(F)(F)F)cc3)cc2)[nH]1)C(C)C	> 100		11	10	10	> 1000										
COC(=O)N[C@H](C(=O)N1CCC[C@H]1c1ncc(-c2ccc(N)cc2)[nH]1)C(C)C	200	300	> 100	> 100	> 100	> 1000										
COC(=O)Nc1ccc(-c2cnc([C@@H]3CCCN3C(=O)[C@@H](NC(=O)OC)C(C)C)[nH]2)cc1	> 100		> 100	> 100	> 100	> 1000										
COC(=O)N[C@H](C(=O)N1CCC[C@H]1c1ncc(-c2ccc(NS(C)(=O)=O)cc2)[nH]1)C(C)C	> 100				13	> 1000									> 100	> 100
